Source: PubChem BioAssay (NCI)
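Five concentrations, 48 hours, 96-well plates. GI50 marks 50% less growth. TGI: concentration producing complete growth inhibition.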

Legend:
Test in all cases: NCI tumour cell line growth inhibition, 48 h
NCI-H522 lung = tested on: NCI-H522 lung
OVCAR-5 ovarian = tested on: OVCAR-5 ovarian
HOP-92 NSCLC = tested on: HOP-92 NSCLC
RPMI-8226 leukemia = tested on: RPMI-8226 leukemia
COLO 205 colon = tested on: COLO 205 colon
SNB-75 CNS = tested on: SNB-75 CNS
OVCAR-3 ovarian = tested on: OVCAR-3 ovarian
HOP-62 NSCLC = tested on: HOP-62 NSCLC
A549 NSCLC = tested on: A549 NSCLC
T-47D breast = tested on: T-47D breast

Compound | TGI (NCI-H522 lung) [µM] | TGI (OVCAR-5 ovarian) [µM] | TGI (HOP-92 NSCLC) [µM] | TGI (RPMI-8226 leukemia) [µM] | TGI (COLO 205 colon) [µM] | TGI (SNB-75 CNS) [µM] | TGI (OVCAR-3 ovarian) [µM] | TGI (HOP-62 NSCLC) [µM] | TGI (A549 NSCLC) [µM] | TGI (T-47D breast) [µM] | GI50 (NCI-H522 lung) [µM] | GI50 (OVCAR-5 ovarian) [µM] | GI50 (HOP-92 NSCLC) [µM] | GI50 (RPMI-8226 leukemia) [µM] | GI50 (COLO 205 colon) [µM] | GI50 (SNB-75 CNS) [µM] | GI50 (OVCAR-3 ovarian) [µM] | GI50 (HOP-62 NSCLC) [µM] | GI50 (A549 NSCLC) [µM] | GI50 (T-47D breast) [µM]
c1ccc([P+](CCCCCCCC[P+](c2ccccc2)(c2ccccc2)c2ccccc2)(c2ccccc2)c2ccccc2)cc1 | 12.1 | > 91.1 | 43.9 | 23.8 | 2.71 | 7.73 | > 100 | > 100 | > 100 | > 100 | – | – | – | – | – | – | – | – | – | –
CN(C)CCCNC(=O)c1c(O)c2ccccc2n(C)c1=O | > 100 | > 100 | 80.7 | > 100 | > 100 | > 100 | > 100 | > 100 | > 100 | > 100 | – | – | – | – | – | – | – | – | – | –
COc1cc(C(O)c2ccc3c(c2)OCO3)cc(OC)c1OC (configuration not stated) | > 100 | > 100 | > 100 | > 100 | > 100 | > 100 | > 100 | > 100 | > 100 | > 100 | – | – | – | – | – | – | – | – | – | –
COC(=O)C1(O)C(c2ccccc2)=NC2(C)CCCC21 (configuration not stated) | > 100 | > 100 | > 100 | > 100 | > 100 | > 100 | > 100 | > 100 | > 100 | > 100 | – | – | – | – | – | – | – | – | – | –
CC(=O)n1nc(-c2ccccc2)n(/N=C/c2ccc([N+](=O)[O-])o2)c1=O | 7.15 | 10.2 | 35.9 | 28.2 | 12.7 | 26.8 | 17 | 19.6 | 25 | 44.5 | – | – | – | – | – | – | – | – | – | –
CN(C)c1ccc(Cc2cc3c(O)ccc(O)c3cc(Cc3ccc(N(C)C)cc3)c2=O)cc1 | 32.5 | > 70 | 14.5 | > 84.9 | 36.6 | > 92.2 | 54.2 | > 100 | > 77.1 | 26.8 | – | – | – | – | – | – | – | – | – | –
COc1ccc(Oc2cnn(C(Br)(Br)C(C)=O)c(=O)c2Br)cc1 | 14.7 | 32.2 | 29.4 | 11.8 | 26.9 | 29.4 | 13.6 | 35.5 | 60.7 | 61 | – | – | – | – | – | – | – | – | – | –
COC1C(O)C(O[C@H]2CC[C@@]3(C)C(CC[C@@H]4[C@@H]3CC[C@]3(C)[C@@H](C(C)OC5OC(CO)C(O)C(O)C5O)CC[C@]43O)C2)OC(C)C1OC1OC(CO)C(O)C(O)C1O (some centres not stated) | > 100 | > 100 | > 100 | > 100 | > 100 | > 100 | > 100 | > 100 | > 100 | > 100 | – | – | – | – | – | – | – | – | – | –
CCOC(=O)C1=CC(C)(C(=O)OCC)Nc2c(nc(N)[nH]c2=O)N1 (configuration not stated) | > 10 | > 10 | > 10 | > 10 | > 10 | > 10 | > 10 | > 10 | > 10 | > 10 | – | – | – | – | – | – | – | – | – | –
COc1ccc(NC(C)c2ccncc2)cc1 (configuration not stated) | > 100 | > 100 | > 100 | > 100 | > 100 | > 100 | > 100 | > 100 | > 100 | > 100 | – | – | – | – | – | – | – | – | – | –
COc1ccc2c(c1)c(=O)c1c(NCCNCCO)ccc3c(=O)n(CCN(C)C)c(=O)n2c31 | 0.0868 | 3.05 | 0.775 | 1.15 | 0.247 | 0.503 | 4.62 | 2.4 | 3.17 | 0.541 | – | – | – | – | – | – | – | – | – | –
COc1ccc(-n2nc(C)c3c(Nc4ccc(NC(=O)Nc5ccc(Cl)c(C(F)(F)F)c5)cc4)ncnc32)cc1 | 3.65 | 4.71 | 5.2 | 4.21 | 3.64 | 4.55 | 5.91 | 3.66 | 6.31 | 5.41 | 1.71 | 1.83 | 1.81 | 1.34 | 1.71 | 0.553 | 1.98 | 1.83 | 1.88 | 1.71
Nc1ccc(-c2nn3c(COc4ccc(Cl)cc4)nnc3s2)cc1 | > 100 | > 100 | > 100 | > 100 | > 100 | > 100 | > 100 | > 100 | > 100 | > 100 | – | – | 98 | – | – | – | – | 20.2 | – | –
O=C(CC(=O)Nc1ccccc1)NNC(c1cc(N=Nc2ccc(Br)cc2)ccc1O)P(O)O (configuration not stated) | > 10 | > 10 | > 10 | > 10 | > 10 | > 10 | > 10 | > 10 | > 10 | > 10 | – | – | – | – | – | – | – | – | – | –
Clc1nncc2sc(-c3ccccc3)nc12 | 44.8 | > 100 | 24 | > 100 | > 86.5 | > 64.1 | 33.8 | 53.6 | > 100 | > 100 | – | – | – | – | – | – | – | – | – | –
CCOC(=O)c1sc2ncnc(N)c2c1C | > 100 | > 100 | 92.2 | > 100 | > 100 | > 100 | > 100 | > 100 | > 100 | > 100 | – | – | – | – | – | – | – | – | – | –

Compound | TGI (NCI-H522 lung) [µM] | TGI (OVCAR-5 ovarian) [µM] | TGI (HOP-92 NSCLC) [µM] | TGI (RPMI-8226 leukemia) [µM] | TGI (COLO 205 colon) [µM] | TGI (SNB-75 CNS) [µM] | TGI (OVCAR-3 ovarian) [µM] | TGI (HOP-62 NSCLC) [µM] | TGI (A549 NSCLC) [µM] | TGI (T-47D breast) [µM] | GI50 (NCI-H522 lung) [µM] | GI50 (OVCAR-5 ovarian) [µM] | GI50 (HOP-92 NSCLC) [µM] | GI50 (RPMI-8226 leukemia) [µM] | GI50 (COLO 205 colon) [µM] | GI50 (SNB-75 CNS) [µM] | GI50 (OVCAR-3 ovarian) [µM] | GI50 (HOP-62 NSCLC) [µM] | GI50 (A549 NSCLC) [µM] | GI50 (T-47D breast) [µM]
O=S1(=O)c2cnccc2NC(=NCc2ccccc2)N1c1ccccc1 | > 100 | > 100 | > 100 | 58.8 | > 100 | > 100 | > 100 | > 100 | > 100 | > 100 | – | – | – | – | – | – | – | – | – | –
O=C(OCC1OC(n2nc(Cn3nnc(-c4cccnc4)n3)n(-c3cccc4ccccc34)c2=S)C(OC(=O)c2ccccc2)C1OC(=O)c1ccccc1)c1ccccc1 (configuration not stated) | > 100 | > 100 | > 100 | > 100 | > 100 | > 100 | > 100 | > 100 | > 100 | > 100 | – | – | – | – | – | – | – | – | – | –
COc1ccc(OC)c2sc(N3C(=O)/C(=C/c4cccc([N+](=O)[O-])c4)N=C3c3ccccc3)nc12 | > 100 | > 100 | > 100 | 61.2 | > 100 | > 100 | > 100 | > 100 | > 100 | 64.2 | – | – | – | – | – | – | – | – | – | –
C[C@]12CC[C@@H]3c4ccc(O)cc4CC[C@H]3[C@@H]1C/C(=C\c1ccc(C#N)cc1)C2=O | 41.6 | > 100 | 89.1 | > 100 | > 100 | > 100 | > 100 | > 100 | > 100 | > 100 | – | – | – | – | – | – | – | – | – | –
O=C(O)CN(CC(=O)O)C(C(=O)O)c1ccccc1 (configuration not stated) | > 100 | > 100 | > 100 | > 100 | > 100 | > 100 | > 100 | > 100 | > 100 | > 100 | – | – | – | – | – | – | – | – | – | –
CCOC(=O)c1ccc(Nc2nc3ccc(C(F)(F)F)cc3nc2C(=O)OCC)cc1 | > 100 | > 100 | > 100 | > 100 | > 100 | > 100 | > 100 | > 100 | > 100 | > 100 | – | – | – | – | – | – | – | – | – | –
CCN(CC)CCO/N=C1\CC[C@H]2[C@@H]3CCc4cc(OC)ccc4[C@H]3CC[C@]12C | 7.02 | 12.4 | 7.25 | 4.26 | 3.03 | 9.25 | 15.5 | 3.73 | 6.96 | 7.13 | – | – | – | – | – | – | – | – | – | –
O=c1c2ccccc2sc2ccccc12 | > 100 | > 100 | > 100 | > 100 | > 100 | > 100 | > 100 | > 100 | > 100 | > 100 | – | – | – | – | – | – | – | – | – | –
C[C@H]1[C@H](C)CC[C@]2(C(=O)OC3OC(CO)C(O)C(O)C3O)CC[C@]3(C)C(=CC[C@@H]4[C@@]5(C)C[C@H]6OC(=O)c7cc(O)c(O)c(O)c7-c7c(cc(O)c(O)c7O)C(=O)O[C@@H]6C(CO)(CO)[C@@H]5CC[C@]43C)[C@H]12 (some centres not stated) | 38.6 | > 100 | > 100 | > 100 | > 100 | > 100 | > 71.5 | > 100 | > 100 | > 100 | – | – | – | – | – | – | – | – | – | –
C[n+]1c(/C=C/c2ccc(O)c3ncccc23)[se]c2ccccc21 | 24.8 | 40.4 | 22.3 | 40.5 | 22.2 | 34.8 | 4.5 | 19.1 | 42 | > 41.8 | – | – | – | – | – | – | – | – | – | –
CC(C)[Si](OC/C(=C/COC(C)(C)C)[C@H]1CC=C(C(=O)c2ccccc2N2CN(C)C(=O)N(C)C2)C1)(C(C)C)C(C)C | 19.7 | 28.7 | 25.1 | 15.6 | 31 | 28.7 | 25 | 31.5 | 23 | 23.6 | – | – | – | – | – | – | – | – | – | –
COc1nc2c(N3CCCC3)nc(N3CCNCC3)nc2nc1NCc1ccccc1 | 2.54 | 8.04 | 5.2 | 3.96 | 1.98 | 4.19 | 2.42 | 2.29 | 5.34 | 3.19 | – | – | – | – | – | – | – | – | – | –
C(=C\c1ccccc1)/COc1ccccc1C(N1CCOCC1)n1nc2ccccc2n1 (configuration not stated) | 49.3 | 44.9 | 21.9 | 12.2 | 36.6 | 16.9 | 7.04 | 20.4 | > 89.2 | 43.8 | – | – | – | – | – | – | – | – | – | –
CON(C)C(=O)C1CCCO1 (configuration not stated) | > 100 | > 100 | > 100 | > 100 | > 100 | > 100 | > 100 | > 100 | > 100 | > 100 | – | – | – | – | – | – | – | – | – | –
CC(C)C1=C(O)C2=C(C(=O)C1=O)C1(C)CCCC(C)(C)C1C(O)C2OC=O (configuration not stated) | 27.5 | 30.9 | 20.1 | 6.9 | 12.5 | 23.7 | 25.9 | > 100 | 35.8 | 27.9 | – | – | – | – | – | – | – | – | – | –
Cc1cc(O)c(-c2cc(O)c(C)cc2O)cc1O | 12.2 | 32.9 | 6.22 | 4.07 | 22.6 | 29 | 5.12 | 32.6 | 49.5 | 5.26 | – | – | – | – | – | – | – | – | – | –
